Source: US20250052985A1, “SYSTEM AND METHOD FOR QUANTITATIVE PHASE IMAGING FOR MULTI-PARAMETRIC SCREENING OF TUMOR THERAPY RESPONSE” (UNIVERSITY OF UTAH RESEARCH FOUNDATION, priority 2023, published 2025)
Values joined by “and” are separate entries in the source; they are usually repeats but may differ in a detail not shown here. Equal entries are not always repeated.

What was measured:
[1] = test system: MCF-7 cells; assay: CellTiter-Glo (CTG) ATP viability assay, MCF-7; format: cell-based
Method: (§1) CTG (e.g., read by the CTG reader 115) is a cell viability assay that quantifies the amount of ATP present at the end of an experiment as an indicator of the number of live cells. The electronic controller 155 measures ATP content in each condition as a readout by a luminescent signal, which is normalized by the luminescence of the control (e.g., a control well) to determine cell viability relative to on-plate controls. In some embodiments, the CTG assay is performed by first removing 100 μL of media from each well on the well-plate 105, which is then replaced with an equal amount of CellTiter-Glo reagent (e.g., Promega, G7572). Assayed plates may be shaken at 500 RPM for 20 minutes and allowed to rest for 10 minutes. In some instances, 100 μL of volume from each well is transferred to a white 96-well plate (e.g., Perkin Elmer, 6005680). The electronic controller 155 collects luminescence data from each well using an Envision plate reader (e.g., Perkin Elmer) and normalized against the solvent control to measure ATP content. The electronic controller 155 fits a 4-parameter hill curve to the dose response to determine the EC50 and depth of response.

[2] = test system: BT-474 cells; assay: cells; conditions: for ToR 20 μM: time of response at 20 μM; for Hill Slope: BT-474, Hill fit; for EC50: Homo sapiens
Source text: (§2) In some embodiments, breast cancer cell lines are imaged, representing diverse clinical subtypes, summarized in Table 2 below, using a QPI microscope (FIG. 1A) based on differential phase contrast (DPC) microscopy and phase reconstruction via a QPI microscope system. DPC is used for image acquisition and phase reconstruction because DPC's flexible design may be customized for high throughput phase measurements. […] As illustrated in the embodiment of FIG. 1A, a QPI microscope system 100 conducts assays in a 96-well plate (e.g., a well-plate 105) with 6-point dose response curves and up to five therapies in triplicate including solvent controls, summarized in Table 4 below. As described below, in reference to FIG. 1A, a growth response of cells is measured noninvasively using QPI via a QPI microscope system 110 before being assayed using a CTG reader 115.
(§3) FIG. 1B illustrates a timeline plot 200 showing two plates (e.g., two, separate well-plates 105) set up in parallel to measure cell viability. With reference to FIG. 1B, two plates are set-up simultaneously for each experiment. A first plate 205 is incubated for 27 hours (h) post drug exposure prior to CTG analysis (3 h equilibration+24 h of imaging), which measures cell adenosine triphosphate (ATP) content as a surrogate for cell viability. A second plate 210 is imaged for 72 h after 3 h equilibration (e.g., 75 h) and followed by CTG. […] The imaging locations are imaged for 72 h, as shown by images 1700-1715 of FIG. 7.
(§4) In some embodiments, a dose-dependent change in growth, as indicated by a change in the rate of mass accumulation or loss, is a parameter that can be extracted from QPI dose-response data. […] Individual specific growth rate measurements are indicated by points in the distribution of the graph 1200 of FIG. 2A. Blue is indicative of the DMSO control and red is indicative of doxorubicin. The black outline is a kernel density function fit to the distribution of specific growth rates for each condition (e.g., *p<0.05, **p<0.01). In some embodiments, the average SGR of each condition is fit to a sigmoid dose-response curve using a Hill equation. For example, computed logistic fit parameters using a 4-parameter Hill model via the QPI microscope system 110 for all conditions are summarized in Tables 5-8 below. To determine if there is a response, as illustrated by FIG. 2B, the QPI microscope system 110 tests goodness of fit, adjusts for degrees of freedom using an F-test at significance p<0.01 by comparison to a flat line, as an indicator of no response. For cases with a better fit to the Hill equation, the 4-parameter Hill curve may be used by the QPI microscope system 110 to determine the EC50, a measure of sensitivity to therapy because it represents the effective concentration at which 50% of the cells respond to therapy, as illustrated by FIG. 10. […] A 4-parameter Hill curve is fit to each dose response plot to extract the depth of response and EC50 for each cell/drug pair. A flat line represents no response due to failure of the F-test to reject the null hypothesis that the logistic fit is indistinguishable from a flat line. […] Each color indicates a different drug or therapy used.

[3] = test system: MCF-7 cells; assay: cells; conditions: for Max Asymptote / Min Asymptote: MCF-7, 4-parameter Hill fit of mean SGR vs concentration, one line per replicate; for Hill Slope: MCF-7, Hill fit; for DoR QPI: depth of response; for ToR 20 μM: time of response at 20 μM
Source text: as §2, §3, §4

[4] = test system: MDA-MB-231 cells; assay: Quantitative phase imaging (QPI) growth response, MDA-MB-231; format: cell-based; design: DoR QPI: scale not given here; ToR 20 μM: unit not given here
Source text: as §2, §3, §4

[5] = test system: BT-474 cells; assay: CellTiter-Glo (CTG) ATP viability assay, BT-474; format: cell-based; conditions: for Min Asymptote: BT-474, Hill fit of luminescence normalized to solvent control, one line per replicate; for EC50: Homo sapiens
Method: as §1

[6] = test system: primary tumor cells (Patient #1); assay: QPI on primary cells after two-week expansion, Patient #1; format: cell-based
Method: In some embodiments, the QPI microscope system 110 applies multiparametric QPI to primary cells from two clinical samples stored in cell bank at, for example, the Huntsman Cancer Institute plated after thawing from liquid nitrogen and CD45+ depleted to reduce the number of immune cells, as shown in FIG. 26.
For example, the primary cells are plated as a 2D monolayer in Clever's complete medium in a 96 well plate (e.g., the well-plate 105) and are allowed to acclimate to cell culture conditions for 18 h prior to dosing with treatments assigned to each patient by a physician. […] The image 3600 is a QPI image of primary cells from a direct from thaw patient derived sample. […] The graph 3610 is a histogram of cell mass used to computationally filter, using the electronic controller 155, for low mass cells (shown in red in the image 3600 and the graph 3605). By using a cutoff between the peaks at, for example, 72 pg, low mass cells can be isolated that are not growing and remove such cells from analysis. […] Using this cutoff, the electronic controller 155 measures the dose response for cells in each condition to determine the EC50 and DoR for each condition studied for the primary cells, as shown in the graph 3615. The graph 3615 is a dose response plot for primary cells treated with therapies assigned to the patient by a physician. […] In some embodiments, the electronic controller 155 determines a drug response in cells from patient derived samples. For example, the electronic controller 155 determines the drug response in therapy treatment samples from patient derived samples.
In some embodiments, both samples are expanded from primary cells in 2D culture using optimized ex vivo culture conditions for 2 weeks, changing media every 3 days to further purify the tumor cells, as shown in a workflow 3700 of FIG. 27.

[7] = 72 h QPI, MDA-MB-231, 4-parameter Hill fit of mean SGR vs concentration, one line per replicate
[8] = 72 h QPI, BT-474, 4-parameter Hill fit of mean SGR vs concentration, one line per replicate

N.N.O=C([O-])C1(C(=O)[O-])CCC1.[Pt+2] [Carboplatin]
Hill Slope ([1]; 72 h CTG, MCF-7, Hill fit): 3.126 and 5.114
log10(EC50) ([1]; 72 h CTG, MCF-7, Hill fit): −1.201 and −1.172
Min Asymptote ([1]; 72 h CTG, MCF-7, Hill fit of luminescence normalized to solvent control, one line per replicate): 0.5048 (2×) and 0.6498
EC50 ([1]; MCF-7 cell line, CellTiter-Glo, read-out: EC50, CTG (converted)): 15.5 µM
DoR CTG ([1]; MCF-7 cell line, depth of response, CellTiter-Glo): 0.4
ToR 20 μM ([2]; BT-474 cell line): 38.7
Max Asymptote ([3]; 72 h QPI): 0.007047 and 0.01142
Min Asymptote ([3]; 72 h QPI): 0.01994 and 0.02292
Hill Slope ([3]; 72 h QPI): 3.7715 and 2.34
DoR QPI ([3]; MCF-7 cell line): 0.6
ToR 20 μM ([3]; MCF-7 cell line): 18.1
EC50 ([3]; read-out: EC50, QPI, MCF-7 cell line, QPI growth rate): 14.2 µM
Max Asymptote [4, 7]: 0.01609 and 0.02303 and 0.02092
Min Asymptote [4, 7]: 0.02861 and 0.03045 and 0.02714
growth rate and heterogeneity over time ([4]; MDA-MB-231, 20 μM): decrease in growth rate with little effect on heterogeneity relative to the control
growth rate and heterogeneity as concentration increases ([4]; MDA-MB-231, FIG. 22): decrease in growth rate and heterogencity simultaneously
EC50 ([4]; MDA-MB-231 cell line, QPI growth rate, read-out: EC50, QPI): 9.1 µM
DoR QPI ([4]; MDA-MB-231 cell line, depth of response, QPI): 0.3
ToR 20 μM ([4]; MDA-MB-231 cell line, time of response at 20 μM): 18.3

CS(=O)(=O)CCNCc1ccc(-c2ccc3ncnc(Nc4ccc(OCc5cccc(F)c5)c(Cl)c4)c3c2)o1 [Lapatinib]
Hill Slope ([5]; 24 h CTG, BT-474, Hill fit): 0.4575
Min Asymptote ([5]; 24 h CTG): 0.2926
Hill Slope ([5]; 72 h CTG, BT-474, Hill fit): 0.6736 and 1.021
log10(EC50) ([5]; 72 h CTG, BT-474, Hill fit): 0.04318
Min Asymptote ([5]; 72 h CTG): 0.3102 and 0.4062 (2×)
DoR CTG ([5]; BT-474 cell line, depth of response, CellTiter-Glo): 0.6
EC50 ([5]; BT-474, 24 h, 24 h CTG, BT-474, Hill fit, read-out: log10(EC50) (converted)): 165 µM
EC50 ([5]; BT-474, BT-474 cell line, CellTiter-Glo, read-out: EC50, CTG): 1.7 µM
type of response (cytostatic/cytotoxic) [2]: cytotoxic response
Max Asymptote ([2]; 24 h QPI, BT-474, 4-parameter Hill fit of mean SGR vs concentration, one line per replicate): 0.009114 and 0.01239 and 0.01012
Hill Slope ([2]; 24 h QPI): 1.0728 and 1.0622 and 0.7683
Max Asymptote [2, 8]: −0.005233 and −0.002968 and −0.002717
Min Asymptote [2, 8]: 0.008681 and 0.009519 and 0.009646
Hill Slope ([2]; 72 h QPI): 0.8265 and 1.1159 and 1.0735
growth rate and heterogeneity as concentration increases ([2]; BT-474, FIG. 22): decrease in growth rate and heterogeneity
DoR QPI ([2]; BT-474 cell line, depth of response, QPI): 1.4
ToR 20 μM ([2]; BT-474 cell line): −1.0616
ToR faster than in MCF-7 ([2]; BT-474 vs MCF-7): 60 h
decrease in heterogeneity relative to MCF-7 ([2]; BT-474 vs MCF-7): 30%
EC50 ([2]; BT-474, BT-474, QPI): ~1.5 µM
EC50 ([2]; BT-474, read-out: EC50, QPI, BT-474 cell line, QPI growth rate): 1.6 µM
EC50 ([2]; BT-474, read-out: EC50, SD, BT-474 cell line, EC50 of the standard deviation): 1.65 µM
type of response (cytostatic/cytotoxic) [3]: cytostatic response
Max Asymptote ([3]; 24 h QPI): 0.02919
Min Asymptote ([3]; 24 h QPI): 0.0206
Hill Slope ([3]; 24 h QPI): 1.4871
Max Asymptote ([3]; 72 h QPI): 0.01659
Min Asymptote ([3]; 72 h QPI): 0.02661
Hill Slope ([3]; 72 h QPI): 1.4826
EC50 ([3]; Homo sapiens, MCF7, 24 h, read-out: log10(EC50), 24 h QPI, MCF-7, Hill fit (converted), EC50 in μM per Table 1): 1.92 µM
EC50 ([3]; Homo sapiens, MCF7, 72 h, read-out: log10(EC50), 72 h QPI, MCF-7, Hill fit (converted), EC50 in μM per Table 1): 1.8 µM
EC50 ([3]; Homo sapiens, MCF7, MCF-7, QPI): ~1.5 µM
EC50 ([3]; Homo sapiens, MCF7, read-out: EC50, QPI, MCF-7 cell line, QPI growth rate): 1.5 µM
DoR QPI ([3]; MCF-7 cell line): 0.4
ToR 20 μM ([3]; MCF-7 cell line): 38.2

C=C1C[C@@H]2CC[C@@]34C[C@H]5O[C@H]6[C@@H](O3)[C@H]3O[C@H](CC[C@@H]3O[C@H]6[C@H]5O4)CC(=O)C[C@@H]3[C@@H](OC)[C@@H](C[C@H](O)CN)O[C@H]3C[C@H]3O[C@@H](CC[C@@H]1O2)C[C@@H](C)C3=C [eribulin]
overall response relative to doxorubicin or gemcitabine ([6]; Patient #1, concentration just above the EC50, normalized mass over time): lesser overall response
DoR relative to the other therapies tested ([6]; Patient #1, dose response plots): lower DoR
growth rate after the first day ([6]; Patient #1, rest of the experiment): approximately 0.0012 h−1

Nc1ccn([C@@H]2O[C@H](CO)[C@@H](O)C2(F)F)c(=O)n1 [gemcitabine]
EC50 compared with eribulin ([6]; Patient #1): lower EC50 than eribulin
